Reference: PubChem BioAssay (NCI)
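Test compounds were applied to cells in 96-well plates for 48 hours at 5 doses. At the TGI there is no net growth.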

Legend:
Experiment in all cases: inhibition of tumour cell growth, NCI panel, 48 h
[1] = tested on: HOP-92 NSCLC
[2] = tested on: U251 CNS
[3] = tested on: HL-60(TB) leukemia
[4] = tested on: KM12 colon
[5] = tested on: M14 melanoma
[6] = tested on: RXF 393 renal
[7] = tested on: COLO 205 colon
[8] = tested on: HCT-116 colon
[9] = tested on: SF-295 CNS
[10] = tested on: HS 578T breast
[11] = tested on: LOX IMVI melanoma
[12] = tested on: MALME-3M melanoma
[13] = tested on: UO-31 renal
[14] = tested on: MDA-MB-231 breast
[15] = tested on: SNB-19 CNS
[16] = tested on: 786-0 renal
[17] = tested on: SN12C renal
[18] = tested on: RPMI-8226 leukemia
[19] = tested on: NCI-H23 lung
[20] = tested on: SK-MEL-5 melanoma
[21] = tested on: TK-10 renal
[22] = tested on: SK-MEL-28 melanoma
[23] = tested on: EKVX NSCLC
[24] = tested on: IGROV1 ovarian
[25] = tested on: NCI/ADR-RES ovarian
[26] = tested on: OVCAR-8 ovarian
[27] = tested on: HCC-2998 colon
[28] = tested on: NCI-H226 lung
[29] = tested on: SF-539 CNS
[30] = tested on: UACC-257 melanoma
[31] = tested on: DU-145 prostate
[32] = tested on: MDA-N
[33] = tested on: CAKI-1 renal
[34] = tested on: A498 renal
[35] = tested on: SR leukemia
[36] = tested on: MDA-MB-435
[37] = tested on: MCF7 breast
[38] = tested on: OVCAR-5 ovarian
[39] = tested on: NCI-H460 lung
[40] = tested on: HCT-15 colon
[41] = tested on: CCRF-CEM leukemia
[42] = tested on: SW-620 colon
[43] = tested on: A549 NSCLC
[44] = tested on: SNB-75 CNS
[45] = tested on: BT-549 breast
[46] = tested on: K-562 leukemia
[47] = tested on: ACHN renal
[48] = tested on: HT29 colon
[49] = tested on: SF-268 CNS
[50] = tested on: PC-3 prostate
[51] = tested on: MOLT-4 leukemia
[52] = tested on: UACC-62 melanoma
[53] = tested on: OVCAR-4 ovarian
[54] = tested on: NCI-H522 lung
[55] = tested on: SK-MEL-2 melanoma

How did the TGI [1] turn out when `CN1CC[C@]2(c3cccc(O)c3)CC(=O)/C(=C/c3ccc(Cl)c(Cl)c3)[C@@H]1C2` was run?
Its TGI is 2.57 µM.

What about the TGI [2] of the same compound?
Its TGI is 2.14 µM.

What about the TGI [3] of the same compound?
The TGI was 0.464 µM.

And the TGI [4]?
The TGI was 2.06 µM.

What about the TGI [5] of the same compound?
The TGI was 3.08 µM.

What about the TGI [6] of the same compound?
Its TGI is 1.92 µM.

What about the TGI [7] of the same compound?
The TGI was 2.96 µM.

And the TGI [8]?
The TGI was 2.47 µM.

And the TGI [9]?
The TGI was 2.86 µM.

What about the TGI [10] of the same compound?
Its TGI is 6.59 µM.

What about the TGI [11] of the same compound?
The TGI was 0.327 µM.

What about the TGI [12] of the same compound?
The TGI was 2.85 µM.

What about the TGI [13] of the same compound?
Its TGI is 2.61 µM.

And the TGI [14]?
Its TGI is 2.4 µM.

What about the TGI [15] of the same compound?
Its TGI is 3.48 µM.

What about the TGI [16] of the same compound?
The TGI was 2.23 µM.

What about the TGI [17] of the same compound?
Its TGI is 2.29 µM.

What about the TGI [18] of the same compound?
Its TGI is 0.901 µM.

What about the TGI [19] of the same compound?
Its TGI is 4.33 µM.

And the TGI [20]?
Its TGI is 3.1 µM.

What about the TGI [21] of the same compound?
The TGI was 3.48 µM.

What about the TGI [22] of the same compound?
The TGI was 3.28 µM.

And the TGI [23]?
The TGI was 3.03 µM.

What about the TGI [24] of the same compound?
Its TGI is 3.72 µM.

And the TGI [25]?
The TGI was 6.76 µM.

What about the TGI [26] of the same compound?
The TGI was 4.35 µM.

What about the TGI [27] of the same compound?
Its TGI is 2.77 µM.

What about the TGI [28] of the same compound?
The TGI was 4.7 µM.

What about the TGI [29] of the same compound?
Its TGI is 4.52 µM.

And the TGI [30]?
The TGI was 2.93 µM.

And the TGI [31]?
The TGI was 3.01 µM.

And the TGI [32]?
Its TGI is 1.83 µM.

What about the TGI [33] of the same compound?
The TGI was 2.32 µM.

And the TGI [34]?
Its TGI is 3.69 µM.

And the TGI [35]?
Its TGI is 10.3 µM.

And the TGI [36]?
Its TGI is 1.4 µM.

What about the TGI [37] of the same compound?
Its TGI is 9.41 µM.

What about the TGI [38] of the same compound?
Its TGI is 3.18 µM.

What about the TGI [39] of the same compound?
Its TGI is 3.39 µM.

And the TGI [40]?
The TGI was 2.52 µM.

What about the TGI [41] of the same compound?
The TGI was 2.85 µM.

And the TGI [42]?
The TGI was 2.41 µM.

What about the TGI [43] of the same compound?
Its TGI is 3.36 µM.

What about the TGI [44] of the same compound?
The TGI was 1.55 µM.

What about the TGI [45] of the same compound?
Its TGI is 3.14 µM.

What about the TGI [46] of the same compound?
Its TGI is 1.1 µM.

What about the TGI [47] of the same compound?
Its TGI is 2.38 µM.

What about the TGI [48] of the same compound?
Its TGI is 2.22 µM.

What about the TGI [49] of the same compound?
The TGI was 3.66 µM.

What about the TGI [50] of the same compound?
The TGI was 1.42 µM.

And the TGI [51]?
The TGI was 0.71 µM.

Which TGI [1] does the source give for `CN(CC(=O)O)c1ncc2c(n1)-c1ccccc1OC2` here?
Its TGI is > 100 µM.

What about the TGI [52] of the same compound?
The TGI was > 100 µM.

What about the TGI [2] of the same compound?
Its TGI is > 100 µM.

And the TGI [3]?
Its TGI is > 100 µM.

And the TGI [4]?
The TGI was > 100 µM.

What about the TGI [5] of the same compound?
Its TGI is > 100 µM.

What about the TGI [6] of the same compound?
The TGI was > 100 µM.

And the TGI [53]?
Its TGI is > 100 µM.

And the TGI [7]?
The TGI was > 100 µM.

What about the TGI [8] of the same compound?
Its TGI is > 100 µM.

What about the TGI [9] of the same compound?
The TGI was > 100 µM.

What about the TGI [10] of the same compound?
Its TGI is > 100 µM.

What about the TGI [11] of the same compound?
Its TGI is > 100 µM.

And the TGI [12]?
The TGI was > 100 µM.

And the TGI [13]?
The TGI was > 100 µM.

And the TGI [14]?
Its TGI is > 100 µM.

And the TGI [15]?
The TGI was > 100 µM.

What about the TGI [16] of the same compound?
Its TGI is > 100 µM.

What about the TGI [17] of the same compound?
Its TGI is > 100 µM.

What about the TGI [18] of the same compound?
The TGI was > 100 µM.

What about the TGI [54] of the same compound?
Its TGI is > 100 µM.

What about the TGI [19] of the same compound?
Its TGI is > 100 µM.

What about the TGI [20] of the same compound?
Its TGI is > 100 µM.

What about the TGI [21] of the same compound?
Its TGI is > 100 µM.

And the TGI [22]?
Its TGI is > 100 µM.

What about the TGI [23] of the same compound?
The TGI was > 100 µM.

And the TGI [24]?
The TGI was > 100 µM.

What about the TGI [25] of the same compound?
Its TGI is > 100 µM.

What about the TGI [26] of the same compound?
Its TGI is > 100 µM.

What about the TGI [29] of the same compound?
Its TGI is > 100 µM.

And the TGI [30]?
Its TGI is > 100 µM.

And the TGI [55]?
Its TGI is > 100 µM.

And the TGI [31]?
Its TGI is > 100 µM.

And the TGI [32]?
The TGI was > 100 µM.

And the TGI [33]?
Its TGI is > 100 µM.

And the TGI [34]?
Its TGI is > 100 µM.

What about the TGI [35] of the same compound?
Its TGI is > 100 µM.

And the TGI [36]?
Its TGI is > 100 µM.

And the TGI [37]?
Its TGI is > 100 µM.

And the TGI [38]?
Its TGI is > 100 µM.

And the TGI [39]?
The TGI was > 100 µM.

What about the TGI [40] of the same compound?
The TGI was > 100 µM.

What about the TGI [41] of the same compound?
The TGI was > 100 µM.

And the TGI [42]?
The TGI was > 100 µM.

And the TGI [43]?
The TGI was > 100 µM.

And the TGI [44]?
Its TGI is > 100 µM.

What about the TGI [46] of the same compound?
The TGI was > 100 µM.

What about the TGI [47] of the same compound?
Its TGI is > 100 µM.

And the TGI [48]?
Its TGI is > 100 µM.

What about the TGI [49] of the same compound?
Its TGI is > 100 µM.

What about the TGI [50] of the same compound?
The TGI was > 100 µM.

What about the TGI [51] of the same compound?
Its TGI is > 100 µM.
